Results published in PubChem BioAssay AID743076.

Tested on: P. falciparum blood stage, IPP rescue, flow cytometry 72 h
Assay: apicoplast-targeting antimalarials identified by IPP supplementation – P. falciparum blood stage, mechanism study for antimalarial apicoplast targeting (AID 743076)
Settings: at 5 µM; stronger effect = higher value

O=C(O)C1Cc2c([nH]c3ccccc23)C(c2ccc(Cl)cc2Cl)N1 (stereo unspecified)
parasitemia ratio IPP rescue/non-rescue: 6.32
